How the values were obtained:
[1] = tested on: tyrosinase enzyme; assay: Selectivity of tyrosinase-modified L-Dopa sensor against C-Dopa; type: biochemical
Source text: L-Dopa detection is achieved through coupling the tyrosinase enzyme-catalyzed L-Dopa oxidation (catecholase activity) and the subsequent electrochemical reduction of the corresponding quinone product, dopaquinone, at low potentials (FIG. 6A). The formed reaction cycle not only enhances the sensitivity through amplification of the resulting current signal but also prevents electrode fouling by inhibiting the spontaneous polymerization reactions of the unstable quinone molecules. Tyrosinase enzyme is simply immobilized on the surface of screen-printed carbon electrodes, followed by crosslinking with glutaraldehyde to prevent leaching of the enzyme (FIG. 6A). To establish the optimal potential for the L-Dopaquinone reduction, the amperometric signals obtained at various potentials, ranging from −0.1 to −0.4 V (vs. internal pseudo-reference Ag/AgCl), are compared upon addition of 10 μM L-Dopa. […] Thus, optimal potential of −0.3 V is chosen and used for subsequent in-vitro and on-body experiments. […] The reproducibility of the L-Dopa sensor is evaluated by measuring 10 μM L-Dopa concentration on six different electrodes sensors.
The performance of the sensor toward following the L-Dopa pharmacokinetics is characterized on healthy patients following the administration of L-Dopa/C-Dopa (100:25 mg) pills which are common oral medication for PD patients. […]

[2] = Pharmacokinetic correlation of fingertip sweat and capillary blood L-Dopa profiles; type: in vivo, human; details: healthy subjects, after L-Dopa/C-Dopa pill, measured every 10 min
Source text: While the blood plasma is the ‘gold standard’ matrix for therapeutic monitoring of L-Dopa, this analysis method relies on LC-MS centralized instruments. To further confirm the reliability of the developed protocol based on touch-based sweat L-Dopa detection, the feasibility of data validation between sweat and blood samples is investigated. Two subjects performed fingertip sweat sensing in parallel to the electrochemical measurements of the finger pricked capillary blood samples, using the enzymatic L-Dopa sensor. As shown in FIG. 62 (A)-(B), the sweat sensor is able to probe and detect successfully L-Dopa fluctuations in microliter blood samples similar to the fingertip natural sweat sample. Similar temporal profiles are observed for blood and sweat experiments, with ˜10 min lag time. […] Additionally, control experiments are also carried out without pill intake (FIG. 62 (C)) and using non-enzymatic electrode (FIG. 62 (D)). In both control experiments, the current signal remained small and unchanged, which indicates the signal specificity of the fingertip touch-based sweat sensing procedure.

[3] = Touch-based fingertip sweat L-Dopa monitoring after L-Dopa/C-Dopa pill intake; type: in vivo, human; details: oral L-Dopa/C-Dopa (100:25 mg) pill
Source text: The disclosed technology can be implemented in some embodiments to provide an individualized therapeutic drug monitoring for PD patients, centered on dynamic non-invasive tracking pharmacokinetic profiles of L-Dopa levels in the secreted sweat upon intake of standard pill formulations. Sweat is a non-invasively retrievable biofluid containing rich information of trace-level, health-related biochemical markers. Wearable sweat sensors have shown enormous potential toward monitoring of physiological heath status (e.g., hydration), disease diagnosis and management (e.g., diabetes and gout), and therapeutic drug monitoring (e.g., pain management). However, the presence of skin as a mechanical barrier prevents an uninterrupted access to this information-rich biofluid, and thus a triggering system (i.e., physical exercise, thermal stimulation, oriontophoresis) is necessary to provide continuous access to sweat sample. […] Taking advantage of the high density of eccrine sweat glands (˜400 glands cm^2) and the consequent generation of high sweat rates, finger touch-based biosensors have recently been reported for the detection of key sweat biomarkers (e.g., glucose, vitamin C, and cortisol). Leveraging such natural thermoregulatory sweat sample, a finger-touch L-Dopa biosensor based on some embodiments of the disclosed technology can continuously monitor the dynamic profile of sweat L-Dopa upon intake of standard anti-Parkinsonian medication including L-Dopa-carbidopa (100:25 mg) (FIG. 5A(a)). […]
To gain further insight into the personalized body responses upon medication intake, the performance of the finger touch biosensor is evaluated on three different individuals while taking the same medication under identically kept conditions (FIG. 7 (a)-(c)). […]

## C[C@@](Cc1ccc(O)c(O)c1)(NN)C(=O)O [C-Dopa, carbidopa]
[1]; a quarter of the L-Dopa concentration (4:1 ratio as in the pill)
  current relative to L-Dopa: ~6%
[1]; same concentration as L-Dopa, amperometry at -0.3 V
  overall response relative to L-Dopa: ~20%

## N[C@@H](Cc1ccc(O)c(O)c1)C(=O)O [L-Dopa, Levodopa]
[2]
  lag time between sweat and capillary blood L-Dopa temporal profiles: ~10 min
[3]; healthy subject
  time at which L-Dopa current signal starts to increase after pill intake: 10 min
  time at which sweat L-Dopa signal decreases back to background level after pill intake: one hour
[3]; healthy subjects, measured every 10 min
  time of peak maximum of sweat L-Dopa signal after pill intake: 30 min

— patent US20240049994A1, “ONE-TOUCH FINGERTIP SWEAT SENSOR AND PERSONALIZED DATA PROCESSING FOR RELIABLE PREDICTION OF BLOOD BIOMARKER CONCENTRATIONS” (THE REGENTS OF THE UNIVERSITY OF CALIFORNIA, priority 2021, published 2024)
